What was measured:
HGPS fibroblasts = assay: Senescent cells (ATRX foci vs nuclear area) in progeria patient fibroblasts; type: cell-based, human
Method: Normal diploid fibroblasts (NDF) and fibroblasts from a patient with premature aging syndrome (HGPS) were used to model human skin and to determine the effect of calcitriol on senescence in these cells. Calcitrol, a synthetic version of Vitamin D3, can reverse some symptoms of progeria. To assess the effect of calcitrol on senescence NDF and HGPS fibroblasts were cultured and treated with 0.5 μM calcitriol for up to 10 days. Cells were then stained for SA-β-gal. FIG. 11A and FIG. 11B show representative images of SA-β-gal negative and positive cells respectively. […] This experiment was repeated at least three times using different passages, a representative similarly passaged experiment is shown. […] The horizontal line demarcates the 90th percentile in ATRX foci number, a stringent definition of the senescent state. The vertical line demarcates the 70th percentile of nuclear area. Cells in the upper right quadrant are senescent (ATRX^highNV^large). […]
The natural extracts were also tested on fibroblast cells as described in Example 4. NDF and HGPS fibroblasts were treated with the natural product extracts for 7 days and then assessed for ATRX foci number, cell size and cell number, as indicated in the experimental design in FIG. 19. […] The data shown is representative of at least two different experiments for each mixture analyzed at multiple doses and multiple times.

LS8817^TetONFMDM2 cells = assay: SA-β-gal positive cells in LS8817 TetON FLAG-MDM2 cells; type: cell-based
Method: The ability of tipifarnib to induce senescence was confirmed in the LS8817^TetONFMDM2 cells used in Example 2. LS8817^TetONFMDM2 cells were treated with either doxycycline alone for 8 days (DOX, black), doxycycline for three days followed by […] of 10 μg/ml doxycycline and 0.2 μM palbociclib (PD+DOX, Brown), or doxycycline for two days followed by three days of doxycycline and palbociclib followed by five days of doxycycline+palbociclib+0.1 μM tipifarnib (PD+DOX->tipi, green). ATRX foci and nuclear size were evaluated as describe previously. […] ATRX foci are shown in green, and DAPI staining in blue. […] The cells treated with 3 days of doxycycline and palbociclib followed by 5 days of tipifarnib had SA-β-gal in about 60% of cells compared to the cells treated with doxycycline and palbociclib for 8 days which had SA-β-gal in less than 10% of cells. Treatment with tipifarnib caused a greater than 6-fold increase in the number of senescent cells.

C=C1/C(=C\C=C2/CCC[C@]3(C)[C@@H]([C@H](C)CCCC(C)(C)O)CC[C@@H]23)C[C@@H](O)C[C@@H]1O [calcitriol]
accumulation of senescent cells (ATRX foci number, nuclear size distribution) (HGPS fibroblasts; 0.5 μM calcitriol up to 10 days): decreased the accumulation of senescent cells
percentage of senescent cells (ATRX high, large nuclear area quadrant) (HGPS fibroblasts; HGPS cells, treated 7 days, about 10% without treatment): about 0%

CC(=O)c1c(C)c2cnc(Nc3ccc(N4CCNCC4)cn3)nc2n(C2CCCC2)c1=O [palbociclib]
cells positive for SA-β-gal (LS8817^TetONFMDM2 cells; doxycycline and palbociclib for 8 days): less than 10%
cells SA-β-gal positive (LS8817^TetONFMDM2 cells; palbociclib alone (without doxycycline)): about 80%

Cn1cncc1[C@@](N)(c1ccc(Cl)cc1)c1ccc2c(c1)c(-c1cccc(Cl)c1)cc(=O)n2C [tipifarnib]
cells positive for SA-β-gal (LS8817^TetONFMDM2 cells; 3 days doxycycline and palbociclib followed by 5 days tipifarnib): about 60%
increase in the number of senescent cells (LS8817^TetONFMDM2 cells; tipifarnib added vs doxycycline and palbociclib 8 days): greater than 6 fold
